Reference: patent publication US20210113523A1, “Compositions For Treating And/Or Preventing Photodynamic Therapy Side Effects” (AC BIOSCIENCE SA, priority 2018, published 2021)
Like-named read-outs stand apart in the source and are kept apart here.

Experiments:
activated mast cells = assay: IL6 release from activated mast cells; type: cell-based; conditions: primed mast cells activated by anti IgE, 6 hours; FIG. 2
Description: Mast cells were obtained from CD34+ progenitors cultivated during 8 weeks in the presence of stem cell factor and IL3. Some mast cells (light grey with spots) were primed during 5 days by IL4 and IgE. Primed mast cells were activated by anti IgE and IL6 release is measured 6 hours following the activation. Masitinib (Masi) a c-kit receptor inhibitor is taken as positive control. Dark grey corresponds to the basal release of IL6 in the absence of mast cells activation. Maximum release of resting mast cells were obtained by the use of a calcium ionophore.

human neutrophils = assay: ROS production of PMA-activated neutrophils (chemiluminescence); type: cell-based; conditions: activation by 100 ng/ml PMA; FIG. 1
Description: ROS production is measured using a chemiluminescence standard procedure: briefly, one hundred microliters of human neutrophils (4×10^6/mL) were primed with TNF-α at 37° C. for 25 minutes. 100 μL luminol (1 μM final concentration) and HRP (62.5 U/mL final concentration) in HBSS were added, and 150-μL aliquots were transferred to a prewarmed 96-well luminometer plate. Light emission was recorded by a Berthold MicroLumat Plus luminometer (Berthold Technologies, Hartfordshire, United Kingdom) (data output is in relative light units per second)

mast cells = assay: Mast cell degranulation estimated by beta-hexosaminidase release (IgE/anti-IgE); type: cell-based; conditions: 1 hour after IgE stimulation
Description: Degranulation was induced by the addition of IgE followed by the addition of anti-IgE Beta-hexosaminidase was measured 1 hour after IgE stimulation. Reference molecule was cromoglycate.

[1] = read-out: NO scavenging IC50; cited from earlier work
[2] = read-out: 2,2-diphenyl-1-picrylhydrazyl scavenging IC50; cited from earlier work
[3] = 10 mg/kg; cited from earlier work
[4] = tested on: Chick Chorioallantoic Membrane (CAM) vessel network; assay: CAM vessel network following PDT irradiation; type: in vivo
Description: 5-ALA (20 mg/ml; pH=6.8) was topically applied on CAM 4 hours before PDT □ For Catechin samples, Catechin (at different concentrations: 1-30 μM) was topically applied on CAM 15 min before PDT-PDT: λ=405 nm irradiance=2.86 mW/cm2 light dose=1.2 J/cm2-10 μM Catechin has the most protective effect against PDT deleterious effect. 5-ALA: aminolevulinique acid.

[5] = 10−4 M, control without IgE 0.132
[6] = 10−5 M, control without IgE 0.135

O=C1c2c(O)cc(O)cc2O[C@H](c2ccc(O)c(O)c2)[C@H]1O [DHQ, Dihydroquercetin]
IL6 release from activated mast cells (activated mast cells): inhibitor of IL6 release | reactive oxygen species (ROS) production by neutrophils (human neutrophils): inhibitory effect | beta-hexosaminidase release (mast cells; [5]): 0.28 | beta-hexosaminidase release (mast cells; [6]): 0.52

Oc1cc(O)cc(/C=C/c2ccc(O)cc2O)c1 [Oxyresveratrol]
IC50 [1]: 45.3 µM | IC50 [2]: 28.9 µM | brain infarct volume [3]: reducing | caspase-3 activation [3]: reducing | cytochrome c release [3]: reducing

O=C(O)c1cc(=O)c2c(OCC(O)COc3cccc4oc(C(=O)O)cc(=O)c34)cccc2o1 [Reference molecule, cromoglycate, reference compound]
beta-hexosaminidase release (mast cells; [5]): 0.34 | beta-hexosaminidase release (mast cells; [6]): 0.48

(+)Catechin
Catechin concentration at which microvessel protection is evidenced (as low as) ([4]; presence of microvessels in the CAM vasculature network, FIG. 5A): 1 µM | Catechin concentration with the most protective effect against PDT deleterious effect ([4]; topically applied on CAM 15 min before PDT, tested 1-30 μM, 5-ALA 20 mg/ml): 10 µM
